Where two headings read alike, the source gives them in different places.
Legend:
[1] = Plasma and brain pharmacokinetics in C57BL/6 mice; type: in vivo; details: male, C57BL/6, mouse, ip, C57BL6 mice, single dose 20 mg/kg i.p.
Description: TG15-132 at a 20 mg/kg dose in a vehicle formulation of 10% DMSO, 50% PEG400, and 40% reversed osmosis-purified water (v/v) was administered to healthy male C57BL/6 mice weighing an average of 27 g by intraperitoneal (i.p.) injection. Blood samples (approximately 60 μL) were collected from the retro-orbital plexus of three animals at times 0.08, 0.25, 0.5, 1, 2, 4, 8, and 24 h after compound administration. Along with the terminal blood samples, the brain samples were also collected at the time points 0.25, 0.5, 2.0, 4.0, 8.0, and 24 h.
Blood samples were collected into labeled microtubes containing dipotassium EDTA solution (20%) as an anticoagulant. Plasma was immediately harvested from the blood by centrifugation at 4000 rpm for 10 min at 4 ± 2 °C and stored below −70 °C until bioanalysis. After isolation, brain tissue samples were rinsed three times in ice cold normal saline (for 5–10 s/rinse using ~5–10 mL normal saline in disposable petri dishes for each rinse) and dried on blotting paper. Tissue samples were homogenized using ice-cold phosphate-buffered saline (pH 7.4). The total homogenate volume (µL) was three times the tissue weight (mg). All homogenates were stored below −70 ± 10 °C until bioanalysis. Concentrations of TG15-132 in plasma and brain samples were determined by fit-for-purpose liquid chromatography with the tandem mass spectrometry method (Sai-Life, Hyderabad, India). Phoenix WinNonlin (version 8.0, Certara, Princeton, NJ, USA) was used to analyze the pharmacokinetic parameters.

Nox2 = molecular target: T1, Nox2 (Homo sapiens, UniProt P04839); experiment: Amplex Red/HRP assay of H2O2 production by PMA-activated dHL60 cells; type: cell-based; details: PMA (1 µM)-activated dHL60 cells, 30 min preincubation; read-out: IC50, inhibition of H2O2 production, Amplex Red Assay
T1 construct: endogenous in cells
T1 sequence (P04839 2-570 limits assumed): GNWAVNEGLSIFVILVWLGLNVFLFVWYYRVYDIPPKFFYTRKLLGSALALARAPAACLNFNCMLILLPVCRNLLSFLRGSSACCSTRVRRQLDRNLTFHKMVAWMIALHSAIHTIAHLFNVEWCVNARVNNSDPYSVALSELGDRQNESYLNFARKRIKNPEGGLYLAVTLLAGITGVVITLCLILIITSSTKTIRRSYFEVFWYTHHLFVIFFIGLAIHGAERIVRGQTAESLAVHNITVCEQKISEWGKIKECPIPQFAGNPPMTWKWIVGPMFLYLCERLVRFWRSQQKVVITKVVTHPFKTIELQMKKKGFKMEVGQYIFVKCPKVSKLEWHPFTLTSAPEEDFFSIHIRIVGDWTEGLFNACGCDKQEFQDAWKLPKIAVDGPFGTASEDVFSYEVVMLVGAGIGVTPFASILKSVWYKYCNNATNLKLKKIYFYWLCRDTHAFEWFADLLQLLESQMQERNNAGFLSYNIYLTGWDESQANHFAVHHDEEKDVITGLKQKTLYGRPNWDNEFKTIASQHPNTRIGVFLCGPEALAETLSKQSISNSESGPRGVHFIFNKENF
T1 sequence (P13498 2-195 partner limits assumed): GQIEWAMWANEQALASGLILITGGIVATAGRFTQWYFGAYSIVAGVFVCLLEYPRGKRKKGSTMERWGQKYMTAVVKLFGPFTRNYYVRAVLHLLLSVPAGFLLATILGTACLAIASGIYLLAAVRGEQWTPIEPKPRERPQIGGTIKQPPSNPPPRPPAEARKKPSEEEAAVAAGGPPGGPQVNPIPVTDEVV
Description: Human promyelocytic leukemia HL60 cells (Sigma-Aldrich) were grown in RPMI 1640 medium (Gibco, 11875-093, Billings, MT, USA) supplemented with 10% FBS (Omega Scientific (Tarzana, CA, USA)), 100 units/mL penicillin, and 100 µg/mL streptomycin, and were incubated at 37 °C and 5% carbon dioxide (CO2). For differentiation to neutrophil-like cells, HL60 cells were pelleted and resuspended in fresh media containing 1 µM of all trans-retinoic acid and incubated for four to five days. Nox2 activation was achieved by treating differentiated HL60 (dHL60) cells with 1 µM PMA [24]. Human leukemia monocytic cells, THP-1, were grown in RPMI 1640 medium + GlutaMAX^TM (Gibco, 61870-036) and supplemented with 10% FBS, 10 mM HEPES, and 1 mM sodium pyruvate and incubated at 37 °C in 5% CO2 environment. To induce differentiation into macrophages, THP-1 cells were treated with PMA (100 ng/mL) for 48 h. To test the efficacy of Nox2 inhibitors, treatment was performed with or without the inhibitor, along with PMA [35].
Plate reader-based analyses of the production of O2^•− and H2O2 by PMA-activated dHL60 cells were performed according to a published protocol with minor modifications. Briefly, for the treatment of dHL60 cells with different concentrations of the compounds, 0.5 mL deep-well 96-well plates were used to dispense and store aliquots of their 10 mM DMSO solutions. Using a Multidrop™ PicoIT dispenser (Thermo Scientific), different volumes of the solutions of candidate Nox inhibitors (10 or 50 mM in DMSO) were injected into the bottom of 0.5 mL V-bottom 96-well plates; then, they were sealed with aluminum foil (VWR, Batavia, IL, USA) using a semiautomatic thermal sealer (BT LabSystems, St. Louis, MO, USA) and stored at −20 °C to reduce freeze-thawing the solutions. The plates with inhibitors were allowed to come to room temperature before the addition of the cell suspensions. dHL60 cells were pelleted and resuspended in HBSS (Invitrogen, Waltham, MA, USA) supplemented with 25 mM HEPES (pH 7.4) and 100 µM DTPA to a cell density of 2 × 10^5 cells/mL. dHL60 cells were added to the V-bottom plates at a volume of 210 µL/well. Next, cells were incubated with inhibitors for 30 min at 37 °C in a CO2-free incubator under ambient oxygen and then transferred to black, clear-bottom 96-well plates (200 µL/well) after incubation. Freshly prepared PMA plus probe solutions in HBSS (5× concentrated, 50 µL/well) included PMA (5 µM) with CBA (500 µM) or with Amplex Red (250 µM) plus HRP (0.5 U/mL) for H2O2 detection, or with HE (50 µM) plus DNA (0.5 mg/mL) for O2^•− detection. Once probes + PMA were added, plates were sealed with sealing film and immediately placed in the pre-warmed plate readers (37 °C). Fluorescence intensities were monitored kinetically from the bottom of the plates every 1.3 min for a period of 2 h using Beckman Coulter (Brea, CA, USA) DTX880 and BMG Labtech (Ortenberg, Germany) FLUOstar Omega plate readers. DMSO alone and DPI (10 µM) were used as negative and positive controls, respectively. […] The IC50 values were determined using at least five independent measurements, each consisting of technical quadruplicates per concentration.

half-life ([1]; brain, read-out: brain half-life (converted)): 2.7 h
Kp ([1]; brain, read-out: brain-to-plasma ratio): > 6
half-life ([1]; plasma, read-out: plasma half-life (converted)): 2.7 h
IC50 (Nox2): 7.9 ± 3 µM
SMILES: CN(C)CCCn1c(SCCc2c[nH]c3ccccc23)nc2ccc(F)cc2c1=O [TG15-132]

— article PMC10525516, “Novel NADPH Oxidase-2 Inhibitors as Potential Anti-Inflammatory and Neuroprotective Agents” (Antioxidants, 2023)
